# Laboratory results taken from patent US20240066135A1, “DRUG CONJUGATES AND USES THEREOF” (SUPERTRANS MEDICAL LTD, priority 2020, published 2024).
# Where two headings read alike, the source gives them in different places.
# What was measured:
# [1] = for Cl / Vd: CD-1 mice
# [2] = in vivo; conditions: male, CD-1, mouse, plasma, sc
# [3] = system: GPB; assay: MIC testing, GPB; format: cell-based; conditions: FIG. 2
# Protocol: (§1) Susceptibility testing was performed based on Clinical and Laboratory Standards Institute (CLSI) guidelines M07-A11 and M100-S29. All bacterial strains were recovered from long-term storage (−80° C.) and cultured on nutrient agar (NA) at 37° C. under aerobic conditions for approximately 20 h, except E. coli ATCC BAA-2469 that was recovered from long-term storage on nutrient agar before further passaging onto nutrient agar+25 μg/mL imipenem (according to ATCC guidelines). Minimum inhibitory concentration (MIC) assays were performed in BD non cation adjusted Mueller-Hinton broth (MHB) in 96-well flat-bottomed polystyrene plates (Corning #3370). Test articles and comparator antibiotics were prepared in sterile water to a concentration of 5.12 mg/mL. For each antibiotic stock, 2× top concentrations of test compounds and comparators were prepared in the appropriate growth medium and added to well 1 of a 96-well plate. Serial 1:1 dilutions were performed from columns 1-11 (changing tips at each dilution step); column 12 served as a positive (growth) control. A negative (sterility) control was set up in available spare wells. A suspension of each strain was prepared in sterile phosphate-buffered saline (PBS) to a density equivalent to a 0.5 McFarland standard. […]
# (§2) MICs were determined using standard methodologies as previously described. […]
# [4] = Red blood cell lysis; format: cell-based; conditions: human, human erythrocytes; FBS-deficient media
# [5] = for AUC: mice
# [6] = system: A. baumannii; assay: MIC testing, A. baumannii; format: cell-based; conditions: Acinetobacter baumannii
# Protocol: as §1, §2
# [7] = Thermodynamic solubility in saline; format: physicochemical; conditions: saline or isotonic, thermodynamic from solid; read-out: TD solubility in saline
# [8] = hRPTEC biomarkers cytotoxicity screen; format: cell-based; conditions: human, human renal proximal tubular epithelial cells (hRPTEC); cell count, nuclear size, DNA structure, mitochondrial mass and membrane potential, phospholipidosis, glutathione content
# [9] = HepG2 cell cytotoxicity; format: cell-based; conditions: human, HepG2 cells; FBS-deficient media
# [10] = system: E. coli; assay: MIC testing, E. coli; format: cell-based
# Protocol: Susceptibility testing was performed based on Clinical and Laboratory Standards Institute (CLSI) guidelines M07-A11 and M100-S29. All bacterial strains were recovered from long-term storage (−80° C.) and cultured on nutrient agar (NA) at 37° C. under aerobic conditions for approximately 20 h, except E. coli ATCC BAA-2469 that was recovered from long-term storage on nutrient agar before further passaging onto nutrient agar+25 μg/mL imipenem (according to ATCC guidelines). Minimum inhibitory concentration (MIC) assays were performed in BD non cation adjusted Mueller-Hinton broth (MHB) in 96-well flat-bottomed polystyrene plates (Corning #3370). Test articles and comparator antibiotics were prepared in sterile water to a concentration of 5.12 mg/mL. For each antibiotic stock, 2× top concentrations of test compounds and comparators were prepared in the appropriate growth medium and added to well 1 of a 96-well plate. Serial 1:1 dilutions were performed from columns 1-11 (changing tips at each dilution step); column 12 served as a positive (growth) control. A negative (sterility) control was set up in available spare wells. A suspension of each strain was prepared in sterile phosphate-buffered saline (PBS) to a density equivalent to a 0.5 McFarland standard. Bacterial suspensions were then diluted 1:150 in the appropriate medium and used to inoculate assay plates (columns 1 through 11) to provide a starting inoculum of ˜2 to 8×10^5 CFU/mL. […] The MIC was defined as the lowest concentration of test articles resulting in complete inhibition of visible growth.
# MICs were determined using standard methodologies as previously described. […] Time-kill assays were performed against uropathogenic E. coli strains, including the sequence type 131 (ST131) NCTC-13341 isolate.
# [11] = LogD (Octanol/buffer); format: physicochemical
# [12] = Single SC administration tolerability; format: in vivo; conditions: highest dose tested (800 mg/kg), male CD-1 mice
# [13] = system: E. coli UTI89; assay: 24 h thigh muscle infection model in neutropenic mice; format: in vivo, CD-1 mice
# Protocol: FIG. 4 illustrates the efficacy of V-r in reducing E. coli UTI89 bacterial burden in a 24 h thigh muscle infection model in neutropenic CD-1 mice.
# In a 24 h thigh muscle infection model, E. coli UTI89 was inoculated at 7.8×10^4 CFU into one thigh muscle per mouse (n=5-8/group) and treated with V-r (total dose of […]) using a q6h dosing regimen from 1 h post-infection. […] Overall, V-r caused a ˜4 to 7.5 log10 reduction in bacterial burden, as compared to vehicle control, over the entire dose range.
# [14] = in vivo; conditions: beagle, dog, iv, 25 mg/kg
# [15] = Plasma protein binding, human; format: in vitro ADME; conditions: read-out: PPB, % bound, human (converted)
# [16] = system: E. coli ATCC 25922; format: cell-based
# [17] = system: E. coli UNT057-1 (CTX-M-15); assay: Complicated urinary tract infection (cUTI) model
# Protocol: Female C3H/Hej mice were placed on a 5% glucose water starting 6 days prior to infection and then for the remainder of the study. The complicated urinary tract infection (cUTI) model was established via trans-urethral injection of the bacterial inoculum. Mice were anesthetized with Ketamine HCL at 40 mg/kg body weight and Xylazine at 6 mg/kg body weight in 0.15 ml PBS injected intra-peritoneally. Using a dissection scope (10×), the urethral orifice was located and a tapered PE10 catheter (attached to MRE40 tubing and a 23 G blunt hub syringe) was inserted and 0.05 ml of the prepared inoculum slowly injected. […] E. coli UNT057-1 (CTX-M-15) strain was used for the cUTI model and inoculum grown in Tryptic soy broth (TSB) to 1.0×10^10 CFU/ml suspension. […] A positive control of meropenem was given at 300 mg/kg q12h by sub-cutaneous administration for a total of 3 days. All treatment groups consisted of 10 animals with CFU (kidneys, bladder and urine) bacterial counts at 7 days post-infection used as the endpoint for efficacy. At 7 days post-infection, urine was collected from mice into 1.5 ml sterile tubes and then mice were euthanized. Kidneys and bladders were homogenized, and the homogenates and urine were serially diluted in 1×PBS and plated onto Brain heart infusion and 0.5% charcoal agar. Agar plates were incubated at 37° C., and colony counts were recorded the following day.
# [18] = system: E. coli ATCC 25922; assay: 9 h thigh muscle infection model in neutropenic mice; format: in vivo, CD-1 mice
# Protocol: Using a screening-based strategy, preliminary proof-of-concept studies with V-r employed an abbreviated 9 h thigh muscle infection model in male CD-1 mice rendered neutropenic. To that end, E. coli ATCC 25922 was inoculated at 9.7×10^4 CFUs into both thigh muscles per mouse (n=5 per experimental group). V-r was administered q2h SC (110-880 mg/kg total dose) starting 1 h post-infection. At 9 h, thigh homogenates were prepared and CFUs were enumerated following culture on CLED agar.
# [19] = PK profiles in mice, IV vs SC administration; format: in vivo; conditions: IV 10 mg/kg, SC 20 mg/kg
# Text: FIG. 11 illustrates the feasibility of adaptation of V-r as a low-dose therapy to treat E. coli-associated cUTIs via sub-cutaneous administration.
# Adaptation of V-r as a low-dose therapy to treat E. coli-associated cUTIs via sub-cutaneous administration was further investigated. Vancomycin can only be given by IV infusion therapy to treat systemic infections. Due to the very low dose therapy of V-r, additional modes of administration of the drug can be pursued besides IV administration pending retention of high bioavailability. In mice, the exposure of V-r (measured by the AUC) following sub-cutaneous administration was essentially 100% of that afforded by IV administration (see FIG. 11). […] Such a finding is critically important for hospitalized cUTIs (and other infections) whereby the SC route might offer a “go-home sooner” of patients and thus early discharge from the hospital for continued low dose V-r therapy from outpatient departments or within the clinical community settings. Such an approach facilitates the practice of prudent antimicrobial stewardship.
# [20] = Plasma protein binding, mouse; format: in vitro ADME; conditions: read-out: PPB, % bound, mouse
# [21] = system: MRSA infections; conditions: 150 mg/kg in rats, 100 mg/kg in dogs, 15 mg/kg in humans; cited from earlier work
# [22] = total dose over 24 h 200 mg/kg, q6h
# [23] = total dose over 24 h 1050 mg/kg
# [24] = total dose over 24 h 1400 mg/kg
# [25] = total dose over 9 h 110 mg/kg, q2h SC
# [26] = total dose over 24 h 1272 mg/kg
structure (smiles),measurement,setting,value
"CN[C@H](CC(C)C)C(=O)N[C@H]1C(=O)N[C@@H](CC(N)=O)C(=O)N[C@H]2C(=O)N[C@H]3C(=O)N[C@H](C(=O)N[C@H](C(=O)N[C@H](CCCNC(=N)N)C(N)=O)c4cc(O)cc(O)c4-c4cc3ccc4O)[C@H](O)c3ccc(c(Cl)c3)Oc3cc2cc(c3O[C@@H]2O[C@H](CO)[C@@H](O)[C@H](O)[C@H]2O[C@H]2C[C@](C)(N)[C@H](O)[C@H](C)O2)Oc2ccc(cc2Cl)[C@H]1O [V-r, vancomycin-D-arginine]",Cl,[1]; SC 20 mg/kg,7.8 mL/min/kg
same,Vd,[1]; SC 20 mg/kg,0.59 L/kg
same,Cl,[1]; SC 121 mg/kg,5.4 mL/min/kg
same,Vd,[1]; SC 121 mg/kg,0.60 L/kg
same,elimination kinetics,[1]; SC administration,first-order elimination
same,AUC,[2]; 20 mg/kg,42.7 µg·h/mL
same,Cmax,[2]; 20 mg/kg,20.4 µg/mL
same,half-life,[2]; 20 mg/kg,0.87 h
same,AUC,[2]; 121 mg/kg,366 µg·h/mL
same,Cmax,[2]; 121 mg/kg,98.4 µg/mL
same,half-life,[2]; 121 mg/kg,1.29 h
same,antimicrobial potency towards a number of GPB,[3],remained intact
same,CC50,[4],> 750 µM
same,AUC,"[5]; single IV 25 mg/kg, 25 mg/kg",43.27 µg·h/mL
same,AUC,"[5]; single IV 50 mg/kg, 50 mg/kg",103.64 µg·h/mL
same,PK profile,[5]; single IV 1-50 mg/kg,linear
same,MIC,[6],8 µg/mL
same,solubility,[7],373 mg/mL
same,CC50,[8],> 100 µM
same,CC50,[9],> 750 µM
same,MIC range,[10],8 to 16 µg/mL
same,MIC,[10]; Escherichia coli,8 µg/mL
same,MIC90,[10]; Escherichia coli,16 µg/mL
same,logD,[11],< -4.01
same,tolerability of a single SC administration,[12],well tolerated
same,reduction of burden below stasis,[13]; all doses higher than 200 mg/kg,up to 2.7 log10 CFU/g
same,total 24 h dose reducing E. coli burden to pre-treatment (stasis) levels,[13]; static dose,250 mg/kg
same,reduction of E. coli burden,[13]; thigh muscle model,> 7 log10 CFU/g
same,Log10 Group Geometric mean (CFU/g) ± SD,[13]; [22],5.60 ± 2.28 Log10 CFU/g
same,Log10 change from vehicle (CFU/g),[13]; [22],−4.11 Log10 CFU/g
same,Log10 Group Geometric mean (CFU/g) ± SD,[13]; total dose over 24 h 400 mg/kg,3.27 ± 1.88 Log10 CFU/g
same,Log10 change from vehicle (CFU/g),[13]; total dose over 24 h 400 mg/kg,−6.43 Log10 CFU/g
same,Log10 Group Geometric mean (CFU/g) ± SD,[13]; total dose over 24 h 700 mg/kg,2.58 ± 0.25 Log10 CFU/g
same,Log10 change from vehicle (CFU/g),[13]; total dose over 24 h 700 mg/kg,−7.13 Log10 CFU/g
same,Log10 Group Geometric mean (CFU/g) ± SD,[13]; [23],2.08 ± 0.89 Log10 CFU/g
same,Log10 change from vehicle (CFU/g),[13]; [23],−7.63 Log10 CFU/g
same,Log10 Group Geometric mean (CFU/g) ± SD,[13]; [24],2.68 ± 1.38 Log10 CFU/g
same,Log10 change from vehicle (CFU/g),[13]; [24],−7.03 Log10 CFU/g
same,AUC,[14],580 µg·h/mL
same,fraction unbound,[15],0.24
same,FOR (at 8 × MIC),[16],<2.32 × 10^−10
same,"q12h dose with maximal abrogation of bacterial burden, bladder","[17]; bladder, q12h for 3 days",25 mg/kg
same,required daily 24 h dose to cause maximal reductions in bacterial burden,[17]; kidney,100 mg/kg
same,"q12h dose with maximal abrogation of bacterial burden, kidney","[17]; kidney, q12h for 3 days",50 mg/kg
same,required daily 24 h dose to cause maximal reductions in bacterial burden,[17]; urine and bladder,50 mg/kg
same,"q12h dose with maximal abrogation of bacterial burden, urine","[17]; urine, q12h for 3 days",25 mg/kg
same,reduction below stasis,[18]; 440 mg/kg,1.0 log10
same,reduction below stasis,[18]; 880 mg/kg,1.3 log10
same,extrapolated static dose,"[18]; 9 h model, total dose",215 mg/kg
same,Log10 Group Geometric mean (CFU/g) ± SD,[18]; [25],5.87 ± 0.60 Log10 CFU/g
same,Log10 change from vehicle (CFU/g),[18]; [25],−1.24 Log10 CFU/g
same,Log10 Group Geometric mean (CFU/g) ± SD,[18]; total dose over 9 h 440 mg/kg,4.14 ± 0.63 Log10 CFU/g
same,Log10 change from vehicle (CFU/g),[18]; total dose over 9 h 440 mg/kg,−2.97 Log10 CFU/g
same,Log10 Group Geometric mean (CFU/g) ± SD,[18]; total dose over 9 h 880 mg/kg,3.76 ± 0.40 Log10 CFU/g
same,Log10 change from vehicle (CFU/g),[18]; total dose over 9 h 880 mg/kg,−3.35 Log10 CFU/g
same,exposure following sub-cutaneous vs IV administration,[19],essentially equivalent
"CN[C@H](CC(C)C)C(=O)N[C@H]1C(=O)N[C@@H](CC(N)=O)C(=O)N[C@H]2C(=O)N[C@H]3C(=O)N[C@H](C(=O)N[C@H](C(=O)O)c4cc(O)cc(O)c4-c4cc3ccc4O)[C@H](O)c3ccc(c(Cl)c3)Oc3cc2cc(c3O[C@@H]2O[C@H](CO)[C@@H](O)[C@H](O)[C@H]2O[C@H]2C[C@](C)(N)[C@H](O)[C@H](C)O2)Oc2ccc(cc2Cl)[C@H]1O [Vancomycin, vancomycin, reference compound]",fraction unbound,[20],0.5
same,CC50,[4],> 750 µM
same,MIC,[6]; read-out: MICs,64 to 256 µg/mL
same,solubility,[7],> 50 mg/mL
same,CC50,[8],> 100 µM
same,target AUC in the treatment of MRSA infections,[21],approximately 400 mg·h/l
same,CC50,[9],> 750 µM
same,MIC,"[10]; Escherichia coli, read-out: MICs",64 to 256 µg/mL
same,Log10 Group Geometric mean (CFU/g) ± SD,[13]; [26],8.48 ± 1.31 Log10 CFU/g
same,Log10 change from vehicle (CFU/g),[13]; [26],−1.23 Log10 CFU/g
same,fraction unbound,[15],0.5
same,impact on E. coli burden,[18]; dose equivalent to the highest dose of V-r,failed to significantly impact E. coli burden
same,Log10 Group Geometric mean (CFU/g) ± SD,[18]; total dose over 9 h 800 mg/kg,6.60 ± 0.66 Log10 CFU/g
same,Log10 change from vehicle (CFU/g),[18]; total dose over 9 h 800 mg/kg,−0.51 Log10 CFU/g
